In paper PMC6789573, “Phosphonic Acid Analogues of Phenylglycine as Inhibitors of Aminopeptidases: Comparison of Porcine Aminopeptidase N, Bovine Leucine Aminopeptidase, Tomato Acidic Leucine Aminopeptidase and Aminopeptidase from Barley Seeds” (Pharmaceuticals, 2019):

Legend:
[1] = target: T1, porcine aminopeptidase N (pAPN) (Sus scrofa, UniProt P15145); assay: Inhibition of porcine kidney aminopeptidase N (L-Leu-pNa hydrolysis, absorbance at 405 nm); format: biochemical; conditions: for Ki / pAPN Ki + SD: racemic compounds, apparent Ki ± SD, 50 mM potassium phosphate pH 7.2, 37 °C, substrate L-Leu-pNa, in = inactive at a concentration of 1 mM; for inhibitory action: pAPN
T1 construct: Microsomal leucine aminopeptidase (APN, EC 3.4.11.2) from porcine kidney was purchased from Sigma Aldrich; purchased Sigma Aldrich; host or cells: porcine kidney (tissue-derived)
T1 sequence (P15145 1-963): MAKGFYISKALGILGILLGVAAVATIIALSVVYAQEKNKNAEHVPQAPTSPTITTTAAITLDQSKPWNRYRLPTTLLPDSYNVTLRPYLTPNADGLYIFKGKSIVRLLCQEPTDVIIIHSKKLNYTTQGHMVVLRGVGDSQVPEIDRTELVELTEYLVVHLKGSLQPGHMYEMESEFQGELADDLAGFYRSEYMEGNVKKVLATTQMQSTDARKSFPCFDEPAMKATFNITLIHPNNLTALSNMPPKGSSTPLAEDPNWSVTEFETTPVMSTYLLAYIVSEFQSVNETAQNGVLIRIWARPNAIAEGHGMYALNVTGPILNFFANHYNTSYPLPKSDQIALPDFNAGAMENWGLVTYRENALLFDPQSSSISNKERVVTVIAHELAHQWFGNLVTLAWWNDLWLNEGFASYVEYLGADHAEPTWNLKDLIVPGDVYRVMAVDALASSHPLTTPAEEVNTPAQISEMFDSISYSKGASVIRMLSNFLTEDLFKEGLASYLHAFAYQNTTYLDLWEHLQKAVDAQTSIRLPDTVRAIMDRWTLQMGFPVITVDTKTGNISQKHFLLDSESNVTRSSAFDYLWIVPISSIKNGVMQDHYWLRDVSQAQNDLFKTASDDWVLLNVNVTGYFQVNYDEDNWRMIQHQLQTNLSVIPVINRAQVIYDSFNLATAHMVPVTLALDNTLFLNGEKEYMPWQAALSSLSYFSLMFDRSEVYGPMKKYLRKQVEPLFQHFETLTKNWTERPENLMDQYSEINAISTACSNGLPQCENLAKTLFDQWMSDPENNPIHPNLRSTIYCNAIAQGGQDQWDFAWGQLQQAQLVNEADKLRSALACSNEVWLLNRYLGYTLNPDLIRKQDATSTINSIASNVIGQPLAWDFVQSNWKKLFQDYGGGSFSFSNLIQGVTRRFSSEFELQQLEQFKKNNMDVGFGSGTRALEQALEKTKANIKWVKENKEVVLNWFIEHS
Description: Microsomal leucine aminopeptidase (APN, EC 3.4.11.2) from porcine kidney was purchased from Sigma Aldrich. It was applied directly in kinetic measurements after dissolving in 50 mM potassium phosphate (pH 7.2). Such a solution should be stored in 4 °C for no longer than 2 days.
(§1) The activity of pAPN (KM = 0.52 mM) was determined as described in the literature. The activity of aminopeptidase from barley seeds was determined at 37 °C in 50 mM Tris-HCl, pH 8.0, containing 50 mM NaCl and 10 mM β-mercaptoethanol using substrate L-leucine-p-nitroanilidine (L-Leu-pNa) dissolved in DMSO. The kinetics parameters of the purified enzyme were measured for L-Leu-pNa at ten final concentrations (ranging from 0.1 to 1.0 mM) and being repeated two times. The KM value of barley seeds aminopeptidase was determined by using the Lineweaver–Burk weighted regression method (see Table S7 and Plot 1 in the Supplementary Information).
The assay mixture of the pAPN, totaling 1.01 mL, contained 50 mM potassium phosphate buffer (pH 7.2), 0.025 mL of the substrate L-Leu-pNa dissolved in DMSO (used in 0.4–0.1 mM range of the final concentration), 0.05 mL of the potential inhibitor in reaction buffer (in a concentration dependent on the potency of the compound), and 0.01 mL of the enzyme solution (4µg/mL final concentration).
(§2) The progress of the enzymatic reaction for both enzymes was measured at 37 °C for 10 min and was monitored spectrophotometrically (UV-VIS Spectrophotometer, JASCO V-730) by following the change in absorbance at 405 nm (formation of p-nitroaniline). The extinction coefficient for pNa was 9620 M^−1cm^−1.
(§3) Inhibition constants were determined considering four substrate concentrations and five concentrations of each inhibitor, with each measurement being repeated at least twice.
(§4) The rate of enzymatic reaction was studied following the reaction progress (changes in absorbance of L-Leu-pNa over time). Kinetics constants, namely Ki and IC50, and the type of the inhibition were determined using Lineweaver–Burk, Dixon, and Hanes–Wolf procedures. For each parameter, relative errors were calculated.

[2] = target: aminopeptidase from barley seeds; assay: Inhibition of aminopeptidase from barley seeds (L-Leu-pNa hydrolysis, absorbance at 405 nm); format: biochemical, barley (Hordeum vulgare L.); conditions: for Ki / Barley Seed AP Ki + SD: racemic compounds, apparent Ki ± SD, 50 mM Tris-HCl pH 8.0, 37 °C, substrate L-Leu-pNa, in = inactive at a concentration of 1 mM; for Ki: read-out: Barley Seed AP Ki + SD; for inhibitory action: barley enzyme
Description: Aminopeptidase from barley seeds (Hordeum vulgare L.) was isolated and purified based on the procedure described previously. The following steps were used: (i) ammonium sulfate precipitation, (ii) gel chromatography (Sephadex G-25, Sephacryl HR 300), followed by (iii) ion chromatography (DEAE—Sepharose). The molecular mass of the extracted enzyme was ~58 kDa. Because of the low stability of the concentrated enzyme solution, it was prepared directly before each kinetic study.
as §1
The assay mixture of the aminopeptidase from barley seeds, totaling 1.095 mL, contained 50 mM Tris-HCl buffer (pH 8.0) with 50 mM NaCl and 10 mM β-mercaptoethanol, 0.025 mL of the substrate L-Leu-pNa dissolved in DMSO (used in 0.4–0.1 mM range of the final concentration), 0.05 mL of varying concentrations of the potential inhibitor (dependent on the potency of the compound), and 0.02 mL enzyme (0.030 mg of protein).
as §2, §3, §4
The progress of the enzymatic reactions was monitored spectrophotometrically (UV-VIS Spectrophotometer JASCO V-730) by following the change in absorbance at 405 nm (formation of p-nitroanilide). The extinction coefficient for L- […]
The kinetic parameters (KM and Vmax) for aminopeptidase from barley seeds were determined by using the Lineweaver–Burk (L-B) weighted regression method. The measured KM value was 0.21 mM ± 0.14 and was used to determine the inhibitory constants of the all evaluated inhibitors.
Table S7. The kinetic parameters characterizing activity of the isolated aminopeptidase from barley seeds. […]
Lineweaver-Burk regression
Plot S1. Graphical determination of the KM value for aminopeptidase from barley seeds by using Lineweaver-Burk: unweighted (blue line) and weighted (red line) regression method.

## NC(c1cc(F)cc(C(F)(F)F)c1)P(=O)(O)O (centres unmarked) [Compound 11]
[1]
  Ki: 164 ± 7.7 µM
[2]
  Ki: 1030 ± 73 µM

## NC(c1ccc(F)c(Cl)c1)P(=O)(O)O (centres unmarked) [Compound 7]
[2]
  Ki: 62.1 ± 2.3 µM

## NC(c1cccc(F)c1)P(=O)(O)O (centres unmarked) [Compound 2]
[1]
  Ki: 122 ± 10 µM
[2]
  Ki: 311 ± 27 µM

## NC(c1ccc(C(F)(F)F)cc1F)P(=O)(O)O (centres unmarked) [Compound 12]
[1]
  inhibitory action: practically no inhibitory action
  pAPN Ki + SD: in ^2
[2]
  inhibitory action: practically no inhibitory action
  Barley Seed AP Ki + SD: in ^2

## NC(c1ccc(C(F)(F)F)cc1)P(=O)(O)O (centres unmarked) [Compound 10]
[1]
  Ki: 56.3 ± 2.2 µM
[2]
  Ki: 686 ± 70 µM

## NC(c1ccc(F)cc1F)P(=O)(O)O (centres unmarked) [Compound 4]
[2]
  Ki: 1420 ± 83 µM

## NC(c1ccc(O)cc1F)P(=O)(O)O (centres unmarked) [Compound 14]
[2]
  Barley Seed AP Ki + SD: in ^2

## NC(c1c(F)cc(F)cc1F)P(=O)(O)O (centres unmarked) [Compound 6]
[1]
  pAPN Ki + SD: in ^2
[2]
  Barley Seed AP Ki + SD: in ^2

## NC(c1ccc(Cl)cc1F)P(=O)(O)O (centres unmarked) [Compound 9]
[2]
  Ki: 818 ± 43 µM

## NC(c1ccc(F)c(F)c1)P(=O)(O)O (centres unmarked) [Compound 5]
[2]
  Ki: 549 ± 54 µM

## NC(c1c(F)c(F)c(F)c(F)c1F)P(=O)(O)O (centres unmarked) [Compound 13]
[1]
  inhibitory action: practically no inhibitory action
  pAPN Ki + SD: in ^2
[2]
  inhibitory action: practically no inhibitory action
  Barley Seed AP Ki + SD: in ^2

## NC(c1ccc(Cl)c(F)c1)P(=O)(O)O (centres unmarked) [Compound 8]
[2]
  Ki: 103 ± 10 µM

## NC(c1ccccc1F)P(=O)(O)O (centres unmarked) [Compound 1]
[1]
  Ki: 232 ± 22 µM

## NC(c1ccc(F)cc1)P(=O)(O)O (centres unmarked) [Compound 3]
[2]
  Ki: 1100 ± 57 µM

## CC(C)C[C@H](N)C(=O)Nc1ccc([N+](=O)[O-])cc1 [L-Leu-pNa, L-leucine-p-nitroanilidine, reference compound]
[1]; substrate of pAPN
  Km: 520 µM
[2]; substrate of barley seed aminopeptidase, Lineweaver-Burk weighted regression, 37 °C, pH 8.0
  Km: 210 µM
